From ChEMBL document CHEMBL1201862, “PubChem BioAssay data set” (2004)
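Grown in 96-well plates, cells were treated for 48 hours with each compound at five concentrations. Insufficient inhibition: endpoint recorded as highest concentration tested. GI50 = concentration required for 50% inhibition of growth.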 Calls of active or inactive are those of the source. Rule as the data show it: active = GI50 up to about 1.1 µM and inactive = higher.

Assays:
Assay in all cases: NCI anticancer screen, dose series, 48 h
DMS-114 = test system: DMS-114
DMS-273 = test system: DMS-273
EKVX = test system: EKVX
HCT-15 = test system: HCT-15
KM12 = test system: KM12
LOX IMVI = test system: LOX IMVI
M19-MEL = test system: M19-MEL
Malme-3M = test system: Malme-3M
NCI-H23 = test system: NCI-H23
NCI-H460 = test system: NCI-H460
NCI-H522 = test system: NCI-H522
OVCAR-3 = test system: OVCAR-3
OVCAR-8 = test system: OVCAR-8
SF-539 = test system: SF-539
SK-MEL-28 = test system: SK-MEL-28
SNB-19 = test system: SNB-19
SNB-78 = test system: SNB-78
TK-10 = test system: TK-10
UACC-62 = test system: UACC-62
XF498 = test system: XF498

Row | Structure (SMILES) | GI50 (DMS-114) | GI50 (DMS-273) | GI50 (EKVX) | GI50 (HCT-15) | GI50 (KM12) | GI50 (LOX IMVI) | GI50 (M19-MEL) | GI50 (Malme-3M) | GI50 (NCI-H23) | GI50 (NCI-H460) | GI50 (NCI-H522) | GI50 (OVCAR-3) | GI50 (OVCAR-8) | GI50 (SF-539) | GI50 (SK-MEL-28) | GI50 (SNB-19) | GI50 (SNB-78) | GI50 (TK-10) | GI50 (UACC-62) | GI50 (XF498)
1 | O=C1C2Nc3ccccc3SC2C(=O)N1c1cccc([N+](=O)[O-])c1 (stereo not drawn) | 44.1 µM (inactive) | 1.46 µM (inactive) | > 100 µM (inactive) | 7.67 µM | 17 µM (inactive) | > 71.1 µM (inactive) | > 100 µM (inactive) | > 79.6 µM (inactive) | 55.8 µM (inactive) | 50.2 µM (inactive) | 57.3 µM (inactive) | > 100 µM (inactive) | > 64 µM (inactive) | > 100 µM (inactive) | > 100 µM (inactive) | > 100 µM (inactive) | > 100 µM (inactive) | 35.4 µM (inactive) | > 100 µM (inactive) | > 100 µM (inactive)
2 | [O-][n+]1c(-c2ccccc2)c2nc3ccccc3nc2c2ccccc21 | > 100 µM (inactive) | > 100 µM (inactive) | > 100 µM (inactive) | > 100 µM | > 100 µM (inactive) | > 100 µM (inactive) | > 100 µM (inactive) | > 100 µM (inactive) | > 100 µM (inactive) | > 100 µM (inactive) | > 100 µM (inactive) | > 100 µM (inactive) | > 100 µM (inactive) | > 100 µM (inactive) | > 100 µM (inactive) | > 100 µM (inactive) | 27.5 µM (inactive) | > 100 µM (inactive) | > 100 µM (inactive) | > 100 µM (inactive)
3 | CCOc1ccc(NC(=O)CC2SC(Nc3ccc(C)cc3)=NC2=O)cc1 (stereo not drawn) | > 100 µM (inactive) | > 100 µM (inactive) | > 100 µM (inactive) | > 100 µM | > 100 µM (inactive) | > 100 µM (inactive) | > 100 µM (inactive) | > 100 µM (inactive) | > 100 µM (inactive) | > 100 µM (inactive) | > 100 µM (inactive) | > 100 µM (inactive) | > 100 µM (inactive) | > 100 µM (inactive) | > 100 µM (inactive) | > 100 µM (inactive) | > 100 µM (inactive) | > 100 µM (inactive) | > 100 µM (inactive) | > 100 µM (inactive)
4 | C=C(C(=C)N1N=NC2C3CCC(C3)C21)N1N=NC2C3CCC(C3)C21 (stereo not drawn) | > 100 µM (inactive) | > 100 µM (inactive) | – | – | > 100 µM (inactive) | 68.5 µM (inactive) | > 100 µM (inactive) | > 100 µM (inactive) | > 100 µM (inactive) | > 100 µM (inactive) | 66.5 µM (inactive) | > 100 µM (inactive) | > 100 µM (inactive) | > 100 µM (inactive) | > 100 µM (inactive) | > 100 µM (inactive) | > 100 µM (inactive) | > 100 µM (inactive) | > 100 µM (inactive) | > 100 µM (inactive)
5 | O=C1C(Nc2ccc(S(=O)(=O)Nc3cnc4ccccc4n3)cc2)=C/C(=N\c2ccc(S(=O)(=O)Nc3cnc4ccccc4n3)cc2)c2ccccc21 | 21.2 µM (inactive) | 12 µM (inactive) | 18.2 µM (inactive) | 18.4 µM | 16.9 µM (inactive) | 16.2 µM (inactive) | 16.6 µM (inactive) | 17.9 µM (inactive) | 18.7 µM (inactive) | 16.7 µM (inactive) | 16.8 µM (inactive) | 19.8 µM (inactive) | 19.8 µM (inactive) | 18.9 µM (inactive) | 18.1 µM (inactive) | 15.3 µM (inactive) | 22.5 µM (inactive) | 30.7 µM (inactive) | 18.2 µM (inactive) | 25.5 µM (inactive)
6 | COc1ccc(CN2CC(C)(C)C2=O)c(OC)c1 | > 100 µM (inactive) | > 100 µM (inactive) | > 100 µM (inactive) | > 100 µM | > 100 µM (inactive) | > 100 µM (inactive) | > 100 µM (inactive) | > 100 µM (inactive) | > 100 µM (inactive) | > 100 µM (inactive) | > 100 µM (inactive) | > 100 µM (inactive) | > 100 µM (inactive) | > 100 µM (inactive) | > 100 µM (inactive) | > 100 µM (inactive) | > 100 µM (inactive) | > 100 µM (inactive) | > 100 µM (inactive) | > 100 µM (inactive)
7 | Cc1cc(N(CCC#N)CCC#N)ccc1/C=C(\NC(=O)/C=C/c1ccccc1)C(=O)N=[N+]=[N-] | > 100 µM (inactive) | > 100 µM (inactive) | > 100 µM (inactive) | > 100 µM | 2.91 µM (inactive) | > 100 µM (inactive) | > 100 µM (inactive) | > 100 µM (inactive) | > 100 µM (inactive) | > 100 µM (inactive) | 30.4 µM (inactive) | 7.01 µM (inactive) | > 100 µM (inactive) | 52.5 µM (inactive) | > 100 µM (inactive) | 77.8 µM (inactive) | 44.4 µM (inactive) | > 100 µM (inactive) | > 100 µM (inactive) | 28.5 µM (inactive)
8 | COc1ccccc1C(=O)N(Cc1ccccc1)c1ccc(Cl)c(C(=O)OC(C)C)c1 | 12.6 µM (inactive) | 5.98 µM (inactive) | 16.7 µM (inactive) | 19.8 µM | 21.2 µM (inactive) | 28.2 µM (inactive) | 25.8 µM (inactive) | 21.9 µM (inactive) | 20.6 µM (inactive) | 21.4 µM (inactive) | 5.93 µM (inactive) | 17.7 µM (inactive) | 27.8 µM (inactive) | 30.6 µM (inactive) | 41.7 µM (inactive) | 24.3 µM (inactive) | 19.1 µM (inactive) | 26.8 µM (inactive) | 19.8 µM (inactive) | 14.2 µM (inactive)
